From US20100249030A1, “ANTI-MITOTIC AGENT AND AURORA KINASE INHIBITOR COMBINATION AS ANTI-CANCER TREATMENT” (Schering Corporation, priority 2007, published 2010)
Read-outs that look alike come from different tables or passages of the source.

Experiments:
phos-MPM2 marker = test: Exit from mitosis measured by phos-MPM2 marker after anti-mitotic induced arrest; assay type: cell-based; conditions: taxane and KSP induced arrest
Experimental: (§1) Single agent Aurora kinase inhibitors require a drug exposure time of 24 hours to induce endoreduplication in asynchronous cells.

cancer cell lines = conditions: cited from earlier work; for cell growth inhibition in combination with a taxane: VX-680 with taxotere, VE-645 with taxol, AZD1152 with taxol, AACR 2007 abstracts; for synergy with Taxotere: Hoover and Harding 2007
[1] = system: HCT-116 colon cancer cells; test: FACS (flow cytometric) analysis of endoreduplication (>4N DNA content) in HCT-116 colon cancer cells; assay type: cell-based; conditions: for Aurora kinase inhibitor exposure at which endoreduplication was still observed (as little as): after 16 hours 5 nM taxotere pretreatment; for exposure to Aurora kinase inhibitor required to induce endoreduplication (>4N DNA content) or cell death: asynchronous cells, 250 nM VX-680, 1000 nM COMPOUND X, 25 nM COMPOUND Z; for exposure to Aurora kinase inhibitor required to induce endoreduplication (>4N DNA content) or cell death / endoreduplication (>4N DNA content): single agent; for time required for Aurora inhibitor to induce endoreduplication, change after pre-treatment: following 16 hour pre-treatment with nocodazole, 250 nM VX-680, 1000 nM COMPOUND X or COMPOUND Z; for cell cycle distribution after release from anti-mitotic pretreatment: 16 hours pretreatment (5 nM taxotere / 0.4 μg/ml nocodazole), then released into DMSO; for cell cycle distribution after anti-mitotic pretreatment (labeled 0 hours): 16 hours pretreatment, 5 nM taxotere / 0.4 μg/ml nocodazole; for effect of anti-mitotic pre-treatment on the exposure time required for an Aurora kinase inhibitor to induce endoreduplication: 16 hour pre-treatment with the anti-mitotic agent (5 nM taxol, 10-50 nM KSP inhibitors)
Experimental: Asynchronous cells require 24 hour exposure to Aurora kinase inhibitors (such as 250 nM VX-680 or 1000 nM COMPOUND X. (Compound X is disclosed in WO 2008/057512, filed Nov. 6, 2007, Example 4-3 and Claim 70, Example 4-3 and Claim 70 and is shown below and it is represented in Formula H and Table 2, column 2, row 17 of the present application) or 25 nM COMPOUND Z (Compound Z is disclosed in PCT US2008/007295, filed Jun. 11, 2008, Example 76-2 and Claim 25, row 7, column 4 and it is represented in Table 13, compound 76-2 of the present application)) to induce endoreduplication (>4N DNA content) or cell death. For example, HCT-116 colon cancer cells were treated with 1000 nM COMPOUND X or 25 nM COMPOUND Z for the indicated times at which time the drug was washed off and replaced with new media see FIG. 1 and FIG. 8 respectively. Cells were analyzed by FACS after a total of 72 hours.
For example, HCT-116 colon cancer cells were treated with 1000 nM COMPOUND X or 25 nM COMPOUND Z for the indicated times at which time the drug was washed off and replaced with new media see FIG. 2 and FIG. 9 respectively. Cells were analyzed by FACS after a total of 24 hours.
For example, HCT-116 colon cancer cells were treated for 16 hours with DMSO (FIG. 3) or 5 nM taxotere and then exposed to DMSO or 1000 nM COMPOUND X or 25 nM COMPOUND Z for 4, 8, and 24 hours. After 4 or 8 hours, COMPOUND X or COMPOUND Z was washed off and new media was added to the cells. Cells were harvested after 24 hours and analyzed by FACS (see FIG. 4 and FIG. 11 respectively). Following DMSO pretreatment, DMSO had no effect on cell cycle distribution. […] Endoreduplication was observed even when COMPOUND X or COMPOUND Z exposure was as little as 4 hours.
However, following a 16 hour pre-treatment with nocodazole for incrusting, the time required for an Aurora inhibitor (such as 250 nM VX-680 or 1000 nM COMPOUND X or COMPOUND Z) to induce endoreduplication was […]. For example, HCT-116 colon cancer cells were treated for 16 hours with 0.4 μg/ml nocodazole see FIG. 5, and then exposed to DMSO or 1000 nM COMPOUND X or COMPOUND Z for 4, 8 or 24 hours. After 4 or 8 hours, COMPOUND X or COMPOUND Z was washed off and new media was added to the cells. Cells were harvested after 24 hours and analyzed by FACS.
For example, HCT-116 colon cancer cells that were not pretreated, were treated with 5 nM taxotere plus DMSO or 1000 nM COMPOUND X or COMPOUND Z concurrently for 4, 8, or 24 hours. At the indicated time the media was removed and replaced with new media and taxotere was added back into these cells. Cells were harvested after 24 hours and analyzed by FACS see FIG. 6 or FIG. 12 respectively.

[2] = system: phosphorylation of Histone H3 (at serine-10); test: Inhibition of phosphorylation of Histone H3 (serine-10) stimulated by anti-mitotic agents; assay type: cell-based; conditions: stimulated by taxanes, KSP inhibitor, and nocodazole
Experimental: as §1

[3] = system: HCT-116 colon cancer cells; test: FACS (flow cytometric) analysis of endoreduplication (>4N DNA content) in HCT-116 colon cancer cells; assay type: cell-based; conditions: after 16 hours 10 nM Ispinesib pretreatment; 1000 nM Compound X / 25 nM Compound Z
[4] = system: cells arrested with taxol, monastrol or nocodazole; conditions: Morrow et al. 2005, Ditchfield et al. 2003, cited from earlier work
[5] = 16 hours 5 nM taxotere pretreatment, then 1000 nM Compound X or 25 nM Compound Z for 4, 8 and 24 hours, FACS at 24 hours
[6] = 16 hours 10 nM Ispinesib (KSP inhibitor) pretreatment, then 1000 nM Compound X or 25 nM Compound Z for 4, 8 and 24 hours, FACS at 24 hours
[7] = 16 hours DMSO pretreatment, then 1000 nM COMPOUND X or 25 nM COMPOUND Z for 4, 8 and 24 hours, FACS at 24 hours
[8] = 16 hours nocodazole (0.4 μg/ml) pretreatment, then 4- or 8-hour exposure to Aurora kinase inhibitor, FACS at 24 hours
[9] = 16 hours nocodazole (0.4 μg/ml) pretreatment, then 24 hour exposure to Aurora kinase inhibitor, FACS at 24 hours
[10] = Aurora kinase inhibitor given at the same time as 5 nM taxotere, 4 hour exposure, FACS at 24 hours
[11] = Aurora kinase inhibitor given at the same time as 5 nM taxotere, no pretreatment
[12] = 1000 nM Compound X / 25 nM Compound Z
[13] = 24 hour exposure, FACS after a total of 24 hours, 250 nM VX-680 / 1000 nM Compound X / 25 nM Compound Z
[14] = drug exposure for 24, 48, or 72 hours, FACS after a total of 72 hours, 1000 nM Compound X / 25 nM Compound Z
[15] = exposure less than 24 hours then drug washed off, FACS after a total of 72 hours, 1000 nM Compound X / 25 nM Compound Z
[16] = exposure less than 24 hours then washed off, FACS after a total of 24 hours, 250 nM VX-680 / 1000 nM Compound X / 25 nM Compound Z

CCN(CCCOc1ccc2c(Nc3cc(CC(=O)Nc4cccc(F)c4)n[nH]3)ncnc2c1)CCOP(=O)(O)O [AZD1152, reference compound]
exit from mitosis, as measured by phos-MPM2 marker (phos-MPM2 marker): accelerated the exit from mitosis
cell growth inhibition in combination with a taxane (cancer cell lines): showed enhanced cell growth inhibition

CSc1cn2c(-c3cn[nH]c3)cnc2c(Nc2cc(C)ns2)n1 [Compound X]
endoreduplication [1, 5]: induced endoreduplication
endoreduplication [1, 6]: induced endoreduplication
endoreduplication [1, 7]: induced endoreduplication, but only when COMPOUND X or COMPOUND Z exposure was 24 hours
endoreduplication [1, 8]: insufficient to induce endoreduplication
endoreduplication [1, 9]: induced endoreduplication
endoreduplication [1, 10]: not sufficient to induce endoreduplication
exposure needed to induce endoreduplication [1, 11]: 24 h
Aurora kinase inhibitor exposure at which endoreduplication was still observed (as little as) [1, 12]: ≤ 4 h
exposure to Aurora kinase inhibitor required to induce endoreduplication (>4N DNA content) or cell death [1]: 24 h
time required for Aurora inhibitor to induce endoreduplication, change after pre-treatment [1]: not reduced
endoreduplication (>4N DNA content) [1, 13]: sufficient to induce endoreduplication
endoreduplication (>4N DNA content) [1, 14]: resulted in the accumulation of cells that underwent endoreduplication
endoreduplication (>4N DNA content) [1, 15]: insufficient to induce endoreduplication
endoreduplication (>4N DNA content) [1, 16]: insufficient to induce endoreduplication
inhibition of phosphorylation of Histone H3 (at serine-10) [2]: capable of inhibiting phosphorylation of Histone H3
exit from mitosis, as measured by phos-MPM2 marker (phos-MPM2 marker): accelerated the exit from mitosis
Aurora kinase inhibitor exposure at which endoreduplication was still observed (as little as) [3]: ≤ 4 h

CCN(Cc1cc(Nc2nc(C)cn3c(-c4cn[nH]c4)cnc23)sn1)C(C)(C)CO [Compound Z]
endoreduplication [1, 5]: induced endoreduplication
endoreduplication [1, 6]: induced endoreduplication
endoreduplication [1, 7]: induced endoreduplication, but only when COMPOUND X or COMPOUND Z exposure was 24 hours
endoreduplication [1, 8]: insufficient to induce endoreduplication
endoreduplication [1, 9]: induced endoreduplication
endoreduplication [1, 10]: not sufficient to induce endoreduplication
endoreduplication ([1]; Aurora kinase inhibitor given at the same time as 5 nM taxotere, 4 hour exposure, FACS at 24 hours, listed as COMPOUND Z): not sufficient
exposure needed to induce endoreduplication [1, 11]: 24 h
exposure needed to induce endoreduplication ([1]; Aurora kinase inhibitor given at the same time as Ispinesib (KSP inhibitor)): 24 h
endoreduplication ([1]; Aurora kinase inhibitor given at the same time as Ispinesib (KSP inhibitor), 4 hour exposure): not sufficient to induce endoreduplication
Aurora kinase inhibitor exposure at which endoreduplication was still observed (as little as) [1, 12]: ≤ 4 h
exposure to Aurora kinase inhibitor required to induce endoreduplication (>4N DNA content) or cell death [1]: 24 h
time required for Aurora inhibitor to induce endoreduplication, change after pre-treatment [1]: not reduced
endoreduplication (>4N DNA content) [1, 13]: sufficient to induce endoreduplication
endoreduplication (>4N DNA content) ([1]; 24 hour exposure, FACS after a total of 24 hours, 250 nM VX-680 / 1000 nM Compound X / 25 nM Compound Z, listed as COMPOUND Z): resulted in the accumulation of cells that underwent endoreduplication
endoreduplication (>4N DNA content) [1, 14]: resulted in the accumulation of cells that underwent endoreduplication
endoreduplication (>4N DNA content) [1, 15]: insufficient to induce endoreduplication
endoreduplication (>4N DNA content) [1, 16]: insufficient to induce endoreduplication
inhibition of phosphorylation of Histone H3 (at serine-10) [2]: capable of inhibiting phosphorylation of Histone H3
exit from mitosis, as measured by phos-MPM2 marker (phos-MPM2 marker): accelerated the exit from mitosis
Aurora kinase inhibitor exposure at which endoreduplication was still observed (as little as) [3]: ≤ 4 h

Cc1cc(Nc2cc(N3CCN(C)CC3)nc(Sc3ccc(NC(=O)C4CC4)cc3)n2)n[nH]1 [MK-0457]
synergy with Taxotere (cancer cell lines; long-term survival assays): synergy occurred with simultaneous exposure
synergy with Taxotere (cancer cell lines; short-term viability assays): synergy occurs with sequential and not simultaneous exposure

CC(=O)O[C@@]12CO[C@@H]1C[C@H](O)[C@@]1(C)C(=O)[C@H](O)C3=C(C)[C@@H](OC(=O)[C@H](O)[C@@H](NC(=O)OC(C)(C)C)c4ccccc4)C[C@@](O)([C@@H](OC(=O)c4ccccc4)[C@H]21)C3(C)C [Taxotere, docetaxel, reference compound]
cell cycle distribution after release from anti-mitotic pretreatment [1]: exited mitosis
cell cycle distribution after anti-mitotic pretreatment (labeled 0 hours) [1]: accumulated in mitosis (4N DNA)

Cc1cc(Nc2cc(N3CCN(C)CC3)nc(Sc3ccc(NC(=O)C4CC4)cc3)n2)n[nH]1 [VX-680, reference compound]
exposure to Aurora kinase inhibitor required to induce endoreduplication (>4N DNA content) or cell death [1]: 24 h
time required for Aurora inhibitor to induce endoreduplication, change after pre-treatment [1]: not reduced
endoreduplication (>4N DNA content) [1, 13]: sufficient to induce endoreduplication
endoreduplication (>4N DNA content) [1, 16]: insufficient to induce endoreduplication
inhibition of phosphorylation of Histone H3 (at serine-10) [2]: capable of inhibiting phosphorylation of Histone H3
exit from mitosis, as measured by phos-MPM2 marker (phos-MPM2 marker): accelerated the exit from mitosis
cell growth inhibition in combination with a taxane (cancer cell lines): showed enhanced cell growth inhibition

COc1cc2c(Nc3ccc(NC(=O)c4ccccc4)cc3)ncnc2cc1OCCCN1CCOCC1 [ZM4477439]
mitotic arrest ([4]; arrest induced by nocodazole): not by nocodazole
mitotic arrest ([4]; arrest induced by taxol): abrogated mitotic arrest induced by taxol

COC(=O)Nc1nc2ccc(C(=O)c3cccs3)cc2[nH]1 [nocodazole, reference compound]
effect of anti-mitotic pre-treatment on the exposure time required for an Aurora kinase inhibitor to induce endoreduplication [1]: did not result in the same reduction in required exposure time
cell cycle distribution after release from anti-mitotic pretreatment [1]: exited mitosis
cell cycle distribution after anti-mitotic pretreatment (labeled 0 hours) [1]: accumulated in mitosis (4N DNA)

CC[C@]1(O)C[C@H]2CN(CCc3c([nH]c4ccccc34)[C@@](C(=O)OC)(c3cc4c(cc3OC)N(C=O)[C@H]3[C@@](O)(C(=O)OC)[C@H](OC(C)=O)[C@]5(CC)C=CCN6CC[C@]43[C@@H]65)C2)C1 [vincristine, reference compound]
effect of anti-mitotic pre-treatment on the exposure time required for an Aurora kinase inhibitor to induce endoreduplication [1]: did not result in the same reduction in required exposure time
